According to ChEMBL document CHEMBL1201862, “PubChem BioAssay data set” (2004):
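Dose response: 5 concentrations. Exposure: 48 h. Format: 96-well plates. Endpoint: linear interpolation; highest concentration if not reached. The concentration for 50% growth inhibition is given as GI50.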 Activity calls are given as the source filed them. Cut-off read from the data, not from the text of the source: active = GI50 up to about 1.1 µM and inactive = higher.

Columns and labels:
Test in all cases: NCI anticancer screen, dose series, 48 h
A549 = system: A549
BT-549 = system: BT-549
EKVX = system: EKVX
HCT-116 = system: HCT-116
HL-60 = system: HL-60
HT-29 = system: HT-29
LOX IMVI = system: LOX IMVI
M14 = system: M14
MDA-MB-231 = system: MDA-MB-231
NCI-H226 = system: NCI-H226
NCI-H23 = system: NCI-H23
NCI-H460 = system: NCI-H460
PC-3 = system: PC-3
SF-268 = system: SF-268
SK-MEL-2 = system: SK-MEL-2
SNB-75 = system: SNB-75
SW-620 = system: SW-620
U-251 = system: U-251
UACC-62 = system: UACC-62
UO-31 = system: UO-31

Measured: GI50

COc1cc2c(c(OC)c1OC)C(=O)CC2N (stereo not given)
inactive: A549 > 100 µM | BT-549 > 100 µM | EKVX > 100 µM | HCT-116 > 100 µM | HL-60 > 100 µM | HT-29 > 100 µM | LOX IMVI > 100 µM | M14 > 100 µM | MDA-MB-231 > 100 µM | NCI-H226 > 100 µM | NCI-H23 > 100 µM | NCI-H460 > 100 µM | PC-3 > 100 µM | SF-268 > 100 µM | SK-MEL-2 > 100 µM | SNB-75 > 100 µM | SW-620 > 100 µM | U-251 > 100 µM | UACC-62 > 100 µM | UO-31 > 100 µM

O=C1CCCC2(c3ccccc3)Nc3ccccc3N12 (stereo not given)
inactive: A549 > 100 µM | BT-549 > 100 µM | EKVX > 100 µM | HCT-116 > 100 µM | HL-60 55.6 µM | HT-29 > 100 µM | LOX IMVI > 100 µM | M14 > 100 µM | MDA-MB-231 > 100 µM | NCI-H226 > 100 µM | NCI-H23 > 100 µM | NCI-H460 78.5 µM | PC-3 > 100 µM | SF-268 > 100 µM | SK-MEL-2 > 100 µM | SNB-75 > 100 µM | SW-620 > 100 µM | U-251 > 100 µM | UACC-62 98.6 µM | UO-31 > 100 µM

Cc1cc2c(cc1-c1cc3c(cc1C)C(C(C)C)=C(O)C(=O)/C3=C\Nc1cccc3c(N)cccc13)/C(=C/Nc1cccc3c(N)cccc13)C(=O)C(O)=C2C(C)C
inactive: A549 59.4 µM | BT-549 > 100 µM | EKVX > 100 µM | HCT-116 > 100 µM | HL-60 33.8 µM | HT-29 > 100 µM | LOX IMVI > 100 µM | M14 48.5 µM | MDA-MB-231 > 100 µM | NCI-H226 > 100 µM | NCI-H23 > 100 µM | NCI-H460 > 100 µM | PC-3 79.8 µM | SF-268 > 100 µM | SK-MEL-2 > 100 µM | SNB-75 > 100 µM | SW-620 > 100 µM | U-251 49.1 µM | UACC-62 > 100 µM | UO-31 30.8 µM

Cc1nn2c(=O)c([N+](=O)[O-])c(/C=C/c3ccco3)nc2s1
inactive: A549 53.5 µM | BT-549 28.7 µM | EKVX 26.4 µM | HCT-116 36.3 µM | HL-60 30.8 µM | HT-29 56.1 µM | LOX IMVI 17.6 µM | M14 64.7 µM | MDA-MB-231 63.4 µM | NCI-H226 77.3 µM | NCI-H23 50.5 µM | NCI-H460 36.2 µM | PC-3 68.2 µM | SF-268 36.4 µM | SK-MEL-2 57 µM | SNB-75 31.5 µM | SW-620 48.2 µM | U-251 29.4 µM | UACC-62 65.3 µM | UO-31 58.7 µM

COc1cccc(C2c3cc4c(cc3OC(Nc3ccccc3)C2C)OCO4)c1O (stereo not given)
inactive: A549 4.95 µM | BT-549 10.6 µM | EKVX 11.1 µM | HCT-116 7.6 µM | HL-60 9.93 µM | HT-29 5.74 µM | LOX IMVI 5.21 µM | M14 3.84 µM | MDA-MB-231 12.7 µM | NCI-H226 12 µM | NCI-H23 8.26 µM | NCI-H460 4.97 µM | PC-3 4.14 µM | SF-268 12.2 µM | SK-MEL-2 13.9 µM | SNB-75 5.6 µM | SW-620 4.88 µM | U-251 5.7 µM | UACC-62 9.02 µM | UO-31 7.06 µM

C=C[C@H]1CN2CC[C@H]1C[C@@H]2[C@@H](O)c1ccnc2ccccc12 [CINCHONINE]
inactive: A549 > 100 µM | BT-549 > 100 µM | EKVX 73.3 µM | HCT-116 > 100 µM | HL-60 > 100 µM | HT-29 46.8 µM | LOX IMVI 5.4 µM | M14 38.1 µM | MDA-MB-231 > 100 µM | NCI-H226 > 100 µM | NCI-H23 > 100 µM | NCI-H460 > 100 µM | PC-3 > 100 µM | SF-268 > 100 µM | SK-MEL-2 > 100 µM | SNB-75 22.8 µM | SW-620 > 100 µM | U-251 > 100 µM | UACC-62 > 100 µM | UO-31 52.7 µM
